This passage reports AC50, EC50 and IC50 results from ChEMBL document CHEMBL1201862, “PubChem BioAssay data set” (2004).

In data set [1] the target is T1, Cytochrome P450 1A2 (Homo sapiens, UniProt P05177).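 Further: PubChem cytochrome P450 panel assay, CYP1A2 panel member.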
T1 sequence (P05177 whole entry): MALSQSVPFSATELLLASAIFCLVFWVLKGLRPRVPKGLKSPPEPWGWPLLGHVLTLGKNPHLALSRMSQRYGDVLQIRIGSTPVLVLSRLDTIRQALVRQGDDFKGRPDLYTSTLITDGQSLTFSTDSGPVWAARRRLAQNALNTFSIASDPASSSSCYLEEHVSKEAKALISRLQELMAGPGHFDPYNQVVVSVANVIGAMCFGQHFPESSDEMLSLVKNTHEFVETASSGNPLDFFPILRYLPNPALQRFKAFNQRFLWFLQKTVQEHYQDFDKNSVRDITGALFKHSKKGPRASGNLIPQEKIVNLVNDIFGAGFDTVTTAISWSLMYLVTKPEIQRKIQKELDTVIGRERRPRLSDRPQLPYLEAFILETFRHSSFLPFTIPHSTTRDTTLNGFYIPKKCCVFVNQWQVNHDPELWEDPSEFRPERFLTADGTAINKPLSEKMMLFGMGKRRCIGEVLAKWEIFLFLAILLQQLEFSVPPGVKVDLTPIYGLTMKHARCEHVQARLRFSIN

The target of data set [2] is Cytochrome P450 2C9 (Homo sapiens, UniProt P11712).
Data set [3] addresses T2, Corticotropin-releasing factor receptor 2/Corticotropin-releasing factor-binding protein (Homo sapiens, UniProt P24387+Q13324).
T2 sequence (Q13324 whole entry): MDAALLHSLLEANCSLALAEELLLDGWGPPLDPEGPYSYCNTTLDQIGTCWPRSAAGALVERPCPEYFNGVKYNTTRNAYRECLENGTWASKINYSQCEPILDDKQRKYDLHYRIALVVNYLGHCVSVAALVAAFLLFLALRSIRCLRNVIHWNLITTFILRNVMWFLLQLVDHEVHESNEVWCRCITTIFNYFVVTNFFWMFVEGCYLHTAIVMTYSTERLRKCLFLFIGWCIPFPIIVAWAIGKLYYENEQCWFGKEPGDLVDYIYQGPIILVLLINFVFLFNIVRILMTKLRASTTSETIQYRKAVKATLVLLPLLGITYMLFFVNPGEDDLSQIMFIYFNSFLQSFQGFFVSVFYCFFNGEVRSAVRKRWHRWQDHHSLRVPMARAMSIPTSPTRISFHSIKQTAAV
T2 sequence (P24387 whole entry): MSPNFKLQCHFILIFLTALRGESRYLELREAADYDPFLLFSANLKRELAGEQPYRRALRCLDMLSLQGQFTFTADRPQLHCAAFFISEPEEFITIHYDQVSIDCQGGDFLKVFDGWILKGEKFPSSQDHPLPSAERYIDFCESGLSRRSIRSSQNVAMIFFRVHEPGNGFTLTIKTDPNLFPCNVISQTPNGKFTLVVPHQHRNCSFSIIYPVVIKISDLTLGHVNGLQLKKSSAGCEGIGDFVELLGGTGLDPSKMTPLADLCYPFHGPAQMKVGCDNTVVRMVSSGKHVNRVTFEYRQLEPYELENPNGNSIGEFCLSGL
The data set can be described thus: activators of CRF receptor 2 with binding protein – uHTS hits, confirmation (AID 602473). In kind it is functional. The conditions noted are these: read-out: EC50_Mean.

The target of data set [4] is T2, Corticotropin-releasing factor receptor 2/Corticotropin-releasing factor-binding protein. Nature of the data set: Dose Response confirmation of uHTS hits for small molecule antagonists of the CRF-binding protein and CRF-R2 receptor complex. The class given is functional. The settings on record: read-out: IC50_Mean.
Data set [5] concerns the target Cytochrome P450 2C19 (Homo sapiens, UniProt P33261). The data set can be described thus: Cytochrome panel assay with activity outcomes. Panel member name: p450-cyp2c19 Compounds with AC50 equal or less than 10 uM are considered active. In kind it is functional.
The target in data set [6] is T3, Heat shock factor protein 1 (Mus musculus, UniProt P38532).
T3 sequence (P38532 whole entry): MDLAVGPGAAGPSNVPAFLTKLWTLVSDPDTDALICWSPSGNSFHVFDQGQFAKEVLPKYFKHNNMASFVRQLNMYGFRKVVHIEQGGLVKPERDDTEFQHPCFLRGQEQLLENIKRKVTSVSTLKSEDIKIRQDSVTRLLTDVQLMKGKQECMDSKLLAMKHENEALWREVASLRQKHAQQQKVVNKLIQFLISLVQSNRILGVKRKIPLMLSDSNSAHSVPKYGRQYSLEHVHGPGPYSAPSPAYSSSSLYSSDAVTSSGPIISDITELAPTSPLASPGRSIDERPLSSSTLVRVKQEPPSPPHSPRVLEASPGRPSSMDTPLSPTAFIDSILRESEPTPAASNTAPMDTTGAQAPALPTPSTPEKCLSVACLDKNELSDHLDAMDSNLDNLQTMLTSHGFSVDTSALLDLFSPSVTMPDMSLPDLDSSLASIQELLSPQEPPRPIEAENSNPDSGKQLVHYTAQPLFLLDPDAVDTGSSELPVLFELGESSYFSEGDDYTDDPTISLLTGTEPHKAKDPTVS
The data set can be described thus: enhancement of HSF1-driven luciferase signal – cell-based, NIH3T3, luminescence, dose retest, confirmation (AID 435004).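 Further: stress induced by proteasome inhibitor MG132 added 30 min after compound; luciferase reporter driven by HSF1 response element in NIH3T3 cells; actives raise luminescence as potentiators of the MG132 stress response.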 The class given is functional.

Data set [7] deals with Cytochrome P450 2D6 (Homo sapiens, UniProt P10635).
In data set [8] the target is T4, Rac GTPase-activating protein 1 (Homo sapiens, UniProt Q9H0H5).
T4 sequence (Q9H0H5 whole entry): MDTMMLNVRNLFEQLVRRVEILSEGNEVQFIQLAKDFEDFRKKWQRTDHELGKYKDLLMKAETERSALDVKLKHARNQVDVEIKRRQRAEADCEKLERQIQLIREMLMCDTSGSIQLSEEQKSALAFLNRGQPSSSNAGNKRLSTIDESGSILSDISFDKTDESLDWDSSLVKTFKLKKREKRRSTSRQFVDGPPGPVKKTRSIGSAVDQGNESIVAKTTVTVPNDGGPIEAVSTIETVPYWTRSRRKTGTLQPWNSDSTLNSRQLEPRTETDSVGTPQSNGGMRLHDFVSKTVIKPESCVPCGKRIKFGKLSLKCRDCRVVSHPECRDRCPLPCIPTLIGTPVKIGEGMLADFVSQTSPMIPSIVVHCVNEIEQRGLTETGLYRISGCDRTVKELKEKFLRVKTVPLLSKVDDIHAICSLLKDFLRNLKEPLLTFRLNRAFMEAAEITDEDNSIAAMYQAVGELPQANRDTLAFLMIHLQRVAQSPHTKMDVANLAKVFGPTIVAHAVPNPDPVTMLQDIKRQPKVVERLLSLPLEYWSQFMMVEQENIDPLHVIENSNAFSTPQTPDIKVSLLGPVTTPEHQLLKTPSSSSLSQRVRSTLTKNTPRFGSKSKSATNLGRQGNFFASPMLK
Nature of the data set: blockers of MgcRacGAP-driven Rac1 GTP hydrolysis – biochemical, ADP Hunter fluorescence, primary and confirmatory, confirmation (AID 624330). In kind it is functional.

For data set [9], the target named is FAD-linked sulfhydryl oxidase ALR (Homo sapiens, UniProt P55789). Nature of the data set: ALR-catalysed DTT oxidation blockers – biochemical, H2O2 detection, luminescence, cherry-pick, dose response (AID 493248).

Activity calls are given as the source filed them.

Cytochrome P450 2C19, sequence (P33261 whole entry): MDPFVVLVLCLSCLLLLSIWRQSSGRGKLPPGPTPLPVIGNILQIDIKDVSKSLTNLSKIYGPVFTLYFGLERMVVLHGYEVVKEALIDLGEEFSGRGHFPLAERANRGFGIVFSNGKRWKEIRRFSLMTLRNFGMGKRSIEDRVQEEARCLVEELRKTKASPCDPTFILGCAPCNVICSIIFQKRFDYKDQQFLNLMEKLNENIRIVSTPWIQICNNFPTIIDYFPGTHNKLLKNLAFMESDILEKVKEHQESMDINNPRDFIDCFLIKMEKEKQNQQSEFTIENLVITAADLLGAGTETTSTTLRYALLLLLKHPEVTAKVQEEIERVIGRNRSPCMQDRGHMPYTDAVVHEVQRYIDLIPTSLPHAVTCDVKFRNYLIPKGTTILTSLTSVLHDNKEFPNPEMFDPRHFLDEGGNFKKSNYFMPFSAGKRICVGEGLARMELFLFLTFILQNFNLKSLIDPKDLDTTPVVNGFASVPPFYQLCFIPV
Cytochrome P450 2C9, sequence (P11712 whole entry): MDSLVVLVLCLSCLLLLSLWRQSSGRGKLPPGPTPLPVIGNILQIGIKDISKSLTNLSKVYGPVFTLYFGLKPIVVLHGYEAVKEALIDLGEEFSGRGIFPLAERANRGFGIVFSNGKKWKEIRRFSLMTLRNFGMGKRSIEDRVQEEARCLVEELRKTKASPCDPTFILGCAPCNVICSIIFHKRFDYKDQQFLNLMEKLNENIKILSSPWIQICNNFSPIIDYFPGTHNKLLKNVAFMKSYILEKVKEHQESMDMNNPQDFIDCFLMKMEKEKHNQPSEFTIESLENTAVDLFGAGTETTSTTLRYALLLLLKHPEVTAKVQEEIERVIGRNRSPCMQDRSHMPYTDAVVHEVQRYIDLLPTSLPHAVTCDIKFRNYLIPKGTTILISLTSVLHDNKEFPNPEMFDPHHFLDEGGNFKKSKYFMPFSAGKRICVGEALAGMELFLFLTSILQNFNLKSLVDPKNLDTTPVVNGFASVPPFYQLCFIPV
Cytochrome P450 2D6, sequence (P10635 whole entry): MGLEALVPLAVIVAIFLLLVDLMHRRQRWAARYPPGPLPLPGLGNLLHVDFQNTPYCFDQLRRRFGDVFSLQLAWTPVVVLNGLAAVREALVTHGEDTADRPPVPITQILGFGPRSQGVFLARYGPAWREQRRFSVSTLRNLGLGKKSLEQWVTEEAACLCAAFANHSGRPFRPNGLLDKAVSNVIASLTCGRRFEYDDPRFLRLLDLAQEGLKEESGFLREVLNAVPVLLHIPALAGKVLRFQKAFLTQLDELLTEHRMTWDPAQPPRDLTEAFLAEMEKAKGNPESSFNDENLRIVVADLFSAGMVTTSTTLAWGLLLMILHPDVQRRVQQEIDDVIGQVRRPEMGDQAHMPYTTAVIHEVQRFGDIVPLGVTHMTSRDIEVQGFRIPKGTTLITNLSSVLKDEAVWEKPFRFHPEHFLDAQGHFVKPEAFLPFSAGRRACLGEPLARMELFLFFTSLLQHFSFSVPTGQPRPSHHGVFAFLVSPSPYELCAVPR
FAD-linked sulfhydryl oxidase ALR, sequence (P55789 whole entry): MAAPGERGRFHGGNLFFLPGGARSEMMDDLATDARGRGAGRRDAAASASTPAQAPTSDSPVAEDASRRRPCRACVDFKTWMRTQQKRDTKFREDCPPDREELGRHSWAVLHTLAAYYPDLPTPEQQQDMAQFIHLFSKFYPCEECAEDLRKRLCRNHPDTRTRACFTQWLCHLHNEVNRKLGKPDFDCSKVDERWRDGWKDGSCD

The AC50 is the midpoint of the concentration-response curve, whichever way the signal moves. On to `C[C@@H](CC(=O)O)[C@@H](N)C(=O)O`, for which the AC50 in data set [1] was 31.6 µM (inconclusive).

For the compound `Clc1cccc(Oc2cnc3ccccc3n2)c1`, the half-maximal activity concentration (AC50) in data set [2] was 14.1 µM (inconclusive).

As to `CCn1cc(C2=NOC(C(=O)Nc3ccccc3C(=O)OC)C2)c(C)n1` (stereo unspecified), the EC50 in data set [3] is > 53 µM (inactive). In data set [4], the IC50 is > 47.1 µM (inactive).

Consider `CCCS(=O)(=O)N1CCCC(C(=O)NCCCN2CCN(c3ccccc3F)CC2)C1` (stereo unspecified), for which the half-maximal activity concentration (AC50) in [5] (read-out: AC50) was 39.8 µM (inconclusive); in data set [2], 5.01 µM (inconclusive).

Regarding `CC1CCCCN1C(=O)COc1ccccc1F` (stereo unspecified), in data set [6], the EC50 was > 260 µM (inactive).

For the compound `Cc1cc(NC(=O)c2c([N+](=O)[O-])c(C)nn2C)no1`, the concentration at half-maximal activity (AC50) entry was “inconclusive” in [5] and 39.8 µM (inconclusive) in data set [1].

Take `Cn1c(=O)c(C(=O)NCc2ccccc2Cl)c(O)c2ccccc21`: in [3], the EC50 was > 53 µM (inactive). In data set [4], the IC50 is > 47.1 µM (inactive).

Regarding `CCOC(=O)Nc1ccc(C(=O)NCC2CCCO2)cc1` (stereo unspecified), the concentration at half-maximal activity (AC50) in [1] is 39.8 µM (inconclusive).

With `N=C1[C@@H](O)[C@]2(I)c3ccccc3N3C(=N)[C@H](O)[C@@H]4c5ccccc5N1[C@@H]4[C@@H]32`, the AC50 in data set [7] is 6.31 µM (inconclusive); in [2], 7.94 µM (inconclusive).

As to `COc1cc(=O)n2c(n1)SCCC2`, the AC50 in data set [2] was 31.6 µM (inconclusive).

As for `CCN=C(S)NNC(=O)c1cccc(Br)c1`, the concentration at half-maximal activity (AC50) in data set [5] (read-out: AC50) is 5.62 µM (inconclusive); in data set [1], 17.8 µM (inconclusive).

As to `C=CCn1c(Cc2c[nH]c3ccccc23)nnc1SCC(=O)NCc1ccccc1`, the AC50 in [1] is 12.6 µM (inconclusive).

With `Cc1ccc2[nH]c(Cc3ccc(N)cc3)nc2c1`, in [2], the AC50 is 14.1 µM (inconclusive).

For the compound `NS(=O)(=O)c1ccc(NC(=O)CSc2nnc(COc3ccccc3Cl)n2C2CC2)cc1`, the EC50 in data set [3] was > 53 µM (inactive). The IC50 in [4] was > 47.1 µM (inactive).

Turning to `Oc1c2c(nc3c(-c4ccccc4)cnn13)CCC2`, the AC50 in data set [5] (read-out: AC50) was 31.6 µM (inconclusive); in data set [2], 22.4 µM (inconclusive).

As for `O=C1C2C3C=CC(C3)C2C(=O)N1CCCO` (stereo unspecified), in data set [3], the EC50 was > 53 µM (inactive). Moreover, in data set [4], the IC50 was > 47.1 µM (inactive).

Turning to `CCOC(=O)C1CCN(C(=O)c2n[nH]c(=O)c3ccccc23)CC1`, the EC50 in [3] is > 53 µM (inactive). For the same compound, the IC50 in data set [4] is > 47.1 µM (inactive).

For the compound `CN1CCN(c2ncc3nc(-c4ccc(Cl)cc4)c(=O)n(CCC#N)c3n2)CC1`, the AC50 result in [5] is “inconclusive”; in data set [1], 15.8 µM (inconclusive).

With `C(=C/c1ccccc1)/CN1CCN(CCOC(c2ccccc2)c2ccccc2)CC1`, in data set [1], the AC50 is 20 µM (inconclusive).

As to `COc1ccc2cc(OCC(=O)NNC(=O)Nc3ccc(F)cc3)ccc2c1`, in data set [8], the IC50 was 65 µM (active).

Take `Fc1cccc(NC(S)=NCc2ccc(Cl)cc2)c1`: the EC50 in data set [3] is > 53 µM (inactive). Moreover, the IC50 in [4] was > 47.1 µM (inactive).

Regarding `Cc1nn(C(C)C(=O)Nc2ccc(Cl)cn2)c(C)c1[N+](=O)[O-]` (stereo unspecified), the AC50 in data set [1] is 12.6 µM (inconclusive).

For `C=CCn1c(SCC(C)=O)nnc1-c1cc(-c2ccccc2)sc1N`, in [8], the IC50 was 29.1 µM (active).

Regarding `CCn1c(SCC(=O)NC(=O)NCc2ccco2)nnc1-c1cccs1`, the AC50 in data set [2] was 39.8 µM (inconclusive).

Consider `COc1ccccc1CNc1ccnc(-c2c(C)noc2C)n1`, for which the AC50 in [7] was 20 µM (inconclusive); in data set [2] it was 0.501 µM (inconclusive).

For `Cc1ccc(NNC(=O)c2ccno2)c(C)c1`, the AC50 in [9] is 3.48 µM (active). Also, the EC50 in data set [6] was > 260 µM (inactive).

Take `Cc1ccc(/N=N\c2c(O)ccc3cc(S(=O)(=O)O)ccc23)cc1`: the values for the half-maximal activity concentration (AC50) in data set [1] and in data set [2] were 5.01 µM (inconclusive) and 3.16 µM (inconclusive), respectively.

For `c1ccc(-n2c(-c3ccncc3)nnc2-c2ccco2)cc1`, the EC50 in [3] was > 53 µM (inactive). In addition, in data set [4], the IC50 is > 47.1 µM (inactive).

For the compound `Cc1ncn(C23CC4CC(CC(C4)C2)C3)n1`, in data set [3], the EC50 is > 53 µM (inactive). Moreover, the IC50 in [4] was > 47.1 µM (inactive).

Turning to `N#C/C(=C\c1ccc(Cl)cc1)c1nc2ccccc2o1`, in data set [6], the EC50 is > 260 µM (inactive).

Regarding `N#Cc1ccc(CN2CC[C@@]3(CCCN(C(=O)Oc4ccccc4)C3)C2)cc1`, the AC50 in [1] is 12.6 µM (inconclusive).

Take `NC1=NC(=O)/C(=C/c2cn(Cc3ccccc3)c3ccccc23)S1`: in data set [6], the EC50 is > 260 µM (inactive).

Regarding `COc1ccc(-c2csc(NC(=O)CN3C(=O)C4CC=CCC4C3=O)n2)cc1OC` (stereo unspecified), the EC50 in [3] is > 53 µM (inactive). In addition, the IC50 in data set [4] was > 47.1 µM (inactive).

For `COC(=O)CC1SC(=O)NC1=Nc1ccc(OC)cc1` (stereo unspecified), in data set [3], the EC50 was > 53 µM (inactive). Besides, the IC50 in data set [4] is > 47.1 µM (inactive).

Consider `Cc1onc(-c2ccccc2Cl)c1C(=O)NCc1ccc(N2CCCC2=O)cc1`, for which the EC50 in data set [3] is > 53 µM (inactive). Further, the IC50 in data set [4] was > 47.1 µM (inactive).

As to `O=[N+]([O-])c1ccc(Nc2nc(N/N=C\c3ccc4c(c3)OCO4)nc(N3CCCCC3)n2)cc1`, the AC50 in [1] and in data set [2] was 8.91 µM (inconclusive) throughout.

`O=C1/C(=N\O)Cc2ccccc21`: the AC50 was 39.8 µM (inconclusive) in [5] (read-out: AC50) and 14.1 µM (inconclusive) in [1].

Regarding `O=C(N/N=C/c1ccc(O)cc1)c1csc2c1CCCC2`, the IC50 in data set [8] was 51.6 µM (active).

Take `O=[N+]([O-])c1cc(O)c(O)c([N+](=O)[O-])c1` [3,5-DINITROCATECHOL (OR-486)]: in data set [1], the concentration at half-maximal activity (AC50) was 39.8 µM (inconclusive).
